These results are taken from US12590123B2, “Compounds and methods for treating cancer, viral infections, and allergic conditions” (Washington University, priority 2019, dated 2026).

What all share (assay type): biochemical
One assay deals with T1, matriptase (Homo sapiens, UniProt Q9Y5Y6).
T1 construct: purchased R&D Systems 3946-SE-010
T1 sequence (Q9Y5Y6 615-855 limits assumed): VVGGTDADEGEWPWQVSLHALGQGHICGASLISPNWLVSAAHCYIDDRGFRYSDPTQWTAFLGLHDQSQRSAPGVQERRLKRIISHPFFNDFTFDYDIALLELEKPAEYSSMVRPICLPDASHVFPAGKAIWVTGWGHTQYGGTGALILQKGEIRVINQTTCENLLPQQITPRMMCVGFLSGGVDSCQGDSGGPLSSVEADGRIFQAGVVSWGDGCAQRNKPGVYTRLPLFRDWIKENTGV
As to the kind of experiment: Fluorescent kinetic enzyme assay of matriptase activity (Boc-QAR-AMC).

Another assay has as its target T2, activated hepsin (Homo sapiens, UniProt P05981).
T2 construct: purchased R&D Systems 4776-SE-010
As to the kind of experiment: Fluorescent kinetic enzyme assay of hepsin activity (Boc-QAR-AMC).

A further assay has as its target recombinant thrombin (Homo sapiens, UniProt P00734). In words: Chromogenic kinetic enzyme assay of thrombin (S2238). As to the method:
(§1) Using GraphPad Prism (GraphPad Software, San Diego, CA), a four-parameter curve fit was used to determine the inhibitor IC50s from a plot of the mean reaction velocity versus the inhibitor concentration. The IC50 values represent the average of three or more separate experimental determinations. Apparent Ki values were calculated from the IC50 values using the Cheng and Prusoff equation (Ki=IC50/(1+[S]/Km).
(§2) Using GraphPad Prism version 6.04 software program, (GraphPad Software, San Diego, CA, graphpad.com), a four parameter curve fit was used to determine the inhibitor IC50s from a plot of the mean reaction velocity versus the inhibitor concentration.
(§3) Fluorescent inhibitor and chromogenic proteolytic assays were performed for compounds prepared in Example 11 in general accordance with the procedures described in Example 9.

The next assay has as its target Factor Xa (Homo sapiens, UniProt P00742). In words: Chromogenic kinetic enzyme assay of Factor Xa (S2222). As to the method: as §1, §2, §3
The target of assay [1] is T3, recombinant HGFA serine protease domain (Homo sapiens, UniProt Q04756).
T3 construct: His6 tag (N); seven amino acid spacer plus TEV cleavage site (N); made in house; host or cells: High 5 insect cells (baculovirus; Sf9 for virus production)
T3 sequence (Q04756 373-655): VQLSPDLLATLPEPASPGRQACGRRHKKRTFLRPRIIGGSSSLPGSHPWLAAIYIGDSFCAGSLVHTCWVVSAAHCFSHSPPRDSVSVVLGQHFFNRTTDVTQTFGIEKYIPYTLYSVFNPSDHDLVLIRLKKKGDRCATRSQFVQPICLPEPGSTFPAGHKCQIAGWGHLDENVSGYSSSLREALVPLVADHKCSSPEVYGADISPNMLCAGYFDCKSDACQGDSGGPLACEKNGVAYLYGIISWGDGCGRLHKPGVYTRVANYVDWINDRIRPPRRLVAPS
As to the kind of experiment: Fluorescent kinetic enzyme assay of HGFA activity (Boc-QLR-AMC). Conditions: Table 2; read-out: HGFA (IC50 nM). An excerpt:
The compounds prepared in Examples 1 to 8 were subjected to a series of inhibitions studies. The compounds were first tested in an HGFA enzymatic assay using the fluorogenic substrate Boc-QLR-AMC with a recombinant form of the HGFA serine protease domain.
This PCR product was cloned into the SfoI-HindIII sites of a modified pFastBac HT baculovirus expression vector (Addgene, Cambridge, MA). This vector contains a six amino His tag followed by a seven amino spacer and a seven amino acid TEV cleavage site placed immediately downstream of the honey bee melittin signal peptide. Using a modified Bac to Bac Expression System (Life Technologies, Carlsbad, CA), recombinant HGFA bacmids were obtained by transforming DH10Bac Escherichia coli cells. To obtain HGFA containing baculovirus, purified bacmids were transfected into Sf9 insect cells. After 5 days in culture at 27° C., media was harvested from transfected Sf9 cells. This media was used to prepare baculovirus infected insect cells (BIICs). These BIIICs were used to infect High 5 insect cells. Four days post infection, media was harvested, and recombinant protein was prepared as follows. Media was chilled to 4° C. and spun at 4000×g for 20 minutes (all subsequent steps were performed at 4° C. unless noted). Clarified media was passed first through a Whatman GF/B 1 um (#1821-047, GE Healthcare Life Sciences, Piscataway, NJ) and then a 0.22 μm PES membrane (#99955, TPP Techno Plastic Products AG, Trasadingen, Switzerland) and then concentrated using a Pall Centramate tangential flow system and Centramate T-series Cassette (#OS010T12, Pall Corporation, Port Washington, NY). Concentrated media was then buffer exchanged in two steps, five volumes of 50 mM Na-phosphate, 500 mM NaCl, pH 6.2, followed by five volumes of 50 mM Na-phosphate, 500 mM NaCl, pH 7.5. […] After mixing this slurry for 12 hours, nickel agarose beads were allowed to settle by gravity and then loaded into a column. Beads were washed with buffer (25 mM Na-phosphate, 500 mM NaCl, 25 mM imidazole, pH 8) and the bound protein eluted using (25 mM Na-phosphate, 500 mM NaCl, 250 mM imidazole, pH 8). Using a Amicon Ultra-4 Centrifugal filters (#UFC801008, Merck Millipore, Ltd., Tullagreen, Ireland), peak protein fractions were concentrated and run over a Superdex-200 10/300 GL column (GE Healthcare Life Sciences, Piscataway, NJ) in 10 mM Tris, 200 mM NaCl, 0.2 mM EDTA, pH 8. HGFA containing fractions were pooled, concentrated, made 50% glycerol, and stored at minus 20° C. Protein was quantitated using a modified Lowry protein assay (#500-0006, Bio-Rad Laboratories, Hercules, CA) and specific activity determined using Boc-QLR-AMC substrate.
Fluorescent kinetic enzyme assays of HGFA, matriptase, and hepsin activity: Compounds (0-20 μM final concentration in reaction) were diluted in DMSO (2% DMSO final concentration in reaction) and then mixed with either recombinant HGFA serine protease domain, matriptase (#3946-SE-010, R&D Systems, Minneapolis, Minnesota), or activated hepsin* (#4776-SE-010, R&D Systems, Minneapolis, Minnesota) in black 384 well plates (Corning #3575. Coming, NY). The final assay concentration for HGFA, matriptase, and hepsin, were 6.25 nM, 0.2 nM, and 0.3 nM, respectively in TNC buffer (25 mM Tris, 150 mM NaCl, 5 mM CaCl2, 0.01% Triton X-100, pH 8). After thirty minutes of incubation at room temperature, Boc-QLR-AMC substrate was added (HGFA assay) or Boc-QAR-AMC substrate (matriptase, and hepsin assays). Fluorescence (excitation at 380 nm and emission at 460 nm) was kinetically measured at room temperature over a 1 hour time period using a Biotek Synergy 2 plate reader (Winnoski, VT). From a plot of the mean reaction velocity versus the inhibitor concentration, a non-linear four parameter curve fit was performed using GraphPad Prism (GraphPad Software, San Diego, CA) to determine inhibitor IC50s. The IC50 values were determined from the average of three or more separate experimental determinations. […]

[2] abbreviates: Table 2, read-out: Matriptase (IC50 nM).
Where [3] appears, read: Table 2, read-out: Hepsin (IC50 nM).
[4] abbreviates: Table 2, chromogenic assay, read-out: Thrombin* (IC50 nM).
The mark [5] stands for this setting: Table 2, chromogenic assay, read-out: Factor Xa* (IC50 nM).

Like-named read-outs stand apart in the source and are kept apart here. Starred links: 1 amine or outer side, 2 acyl side, 3 side chain; linkers in the order of their positions; H or OH if unused. Positions of bridges follow the written chain, without caps; N, C: chain ends. Non-standard residues stand in square brackets, D forms with d. Residues, ends and D or L forms follow the SMILES beside them. X6 = N=C(N)NCCC[C@H](N[*:1])C(=O)c1nc2ccc(C(=O)[*:2])cc2s1

T2 sequence (P05981 163-417 limits assumed): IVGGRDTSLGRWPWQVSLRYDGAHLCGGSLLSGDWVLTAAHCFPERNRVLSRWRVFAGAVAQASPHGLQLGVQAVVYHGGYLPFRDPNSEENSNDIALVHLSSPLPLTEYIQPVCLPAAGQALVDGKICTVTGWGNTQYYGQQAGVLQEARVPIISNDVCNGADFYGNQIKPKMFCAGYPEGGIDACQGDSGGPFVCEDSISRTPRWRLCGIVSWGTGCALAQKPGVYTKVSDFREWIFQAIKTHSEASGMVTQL
T2 sequence (P05981 1-162 partner limits assumed): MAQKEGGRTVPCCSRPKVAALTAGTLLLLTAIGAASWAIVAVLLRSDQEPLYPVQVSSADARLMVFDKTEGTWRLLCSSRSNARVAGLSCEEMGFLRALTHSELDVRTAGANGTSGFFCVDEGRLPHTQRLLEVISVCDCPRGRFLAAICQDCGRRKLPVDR
Chain of Factor Xa (P00742 235-488 limits assumed): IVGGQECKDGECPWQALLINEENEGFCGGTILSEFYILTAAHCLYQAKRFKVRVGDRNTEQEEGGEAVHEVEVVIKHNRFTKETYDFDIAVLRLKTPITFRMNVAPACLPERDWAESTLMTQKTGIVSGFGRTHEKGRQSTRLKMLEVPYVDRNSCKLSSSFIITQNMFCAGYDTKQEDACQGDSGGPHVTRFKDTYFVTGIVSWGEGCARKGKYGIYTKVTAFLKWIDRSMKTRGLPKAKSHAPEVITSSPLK
Chain of Factor Xa (P00742 41-179 partner limits assumed): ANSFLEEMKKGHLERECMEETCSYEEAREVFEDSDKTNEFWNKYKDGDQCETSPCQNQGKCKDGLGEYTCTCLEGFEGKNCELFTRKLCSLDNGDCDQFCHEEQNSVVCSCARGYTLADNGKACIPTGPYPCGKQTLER
Description for activated hepsin: After thirty minutes of incubation at room temperature, Boc-QLR-AMC substrate was added (HGFA assay) or Boc-QAR-AMC substrate (matriptase, and hepsin assays). […] From a plot of the mean reaction velocity versus the inhibitor concentration, a non-linear four parameter curve fit was performed using GraphPad Prism (GraphPad Software, San Diego, CA) to determine inhibitor IC50s. The IC50 values were determined from the average of three or more separate experimental determinations. Apparent Ki values were calculated using the Cheng and Prusoff equation (Ki=IC50/(1+[S]/Km).
Inhibitors were pre-incubated with protease followed by the addition of the substrate. Inhibition of substrate proteolysis derived fluorescence was monitored kinetically over a period of one hour.

Take `CC(=O)N1CCC(CCc2ccccc2)(OC(=O)N[C@@H](CC(C)C)C(=O)N[C@@H](CCCNC(=N)N)C(=O)c2nc3ccccc3s2)CC1` [Compound 8c, 1-acetyl-4-phenethylpiperidin-4-yl ((S)-1-(((S)-1-(benzo[d]thiazol-2-yl)-5-guanidino-1-oxopentan-2-yl)amino)-4-methyl-1-oxopentan-2-yl)carbamate]: the IC50 at matriptase (Example 12, read-out: IC50 for matriptase) was 70 nM; on activated hepsin (Example 12, read-out: IC50 for hepsin), 0.5 nM; on recombinant thrombin (Table 3, average of three experiments, read-out: Thrombin IC50) it was 7700 nM; on Factor Xa (Table 3, average of three experiments, read-out: Factor Xa IC50), 2000 nM.

For `CC(=O)N[C@H]1CCCCNC(=O)CCC(C(=O)N[C@@H](CCCNC(=N)N)C(=O)c2nc3ccccc3s2)NC(=O)[C@H](CCCNC(=N)N)NC1=O` (stereo partly shown) [VD2109B], the IC50 in assay [1] is 2520 nM; at matriptase (setting [2]), 0.07 nM; at activated hepsin (setting [3]), 0.04 nM; on recombinant thrombin (setting [4]), above 20000 nM; on Factor Xa (setting [5]) it was 155 nM.

Take `CC(=O)N[C@H]1CC(=O)NCCCC[C@@H](C(=O)N[C@@H](CCCNC(=N)N)C(=O)c2nc3ccc(C(=O)N[C@@H](C(N)=O)C(C)C)cc3s2)NC(=O)[C@H](CC(C)C)NC1=O` [VD3056, 2-(((3S,6S,14S)-6-acetamido-3-isobutyl-2,5,8-trioxo-1,4,9-triazacyclotetradecane-14-carbonyl)-L-arginyl)-N—((R)-1-amino-3-methyl-1-oxobutan-2-yl)benzo[d]thiazole-6-carboxamide] (Ac-DLK[X6][dV]-NH2; lactam 1-3): the IC50 worked out at 5380 nM in assay [1]; 11.2 nM at matriptase (setting [2]); 5.4 nM at activated hepsin (setting [3]); 33.9 nM on recombinant thrombin (setting [4]); 118 nM at Factor Xa (setting [5]).

With `CC(=O)N[C@H]1CC(=O)NCCCC[C@@H](C(=O)N[C@@H](CCCNC(=N)N)C(=O)c2nccs2)NC(=O)[C@H](CC(C)C)NC1=O` [VD3076, (3S,6S,14S)-6-acetamido-N—((S)-5-guanidino-1-oxo-1-(thiazol-2-yl)pentan-2-yl)-3-isobutyl-2,5,8-trioxo-1,4,9-triazacyclotetradecane-14-carboxamide], the IC50 on matriptase (setting [2]) amounted to 41.3 nM; on activated hepsin (setting [3]) it was 136 nM; on recombinant thrombin (setting [4]) it was 7940 nM; on Factor Xa (setting [5]) it was 1360 nM.

`CC(=O)N[C@H]1CC(=O)NCCCC[C@@H](C(=O)N[C@@H](CCCNC(=N)N)C(=O)c2nc3ccccc3s2)NC(=O)[C@H]([C@H](C)O)NC1=O` [VD3157, (3S,6S,14S)-6-acetamido-N—((S)-1-(benzo[d]thiazol-2-yl)-5-guanidino-1-oxopentan-2-yl)-3-((S)-1-hydroxyethyl)-2,5,8-trioxo-1,4,9-triazacyclotetradecane-14-carboxamide]: the IC50 in assay [1] was 11800 nM; on matriptase (setting [2]), 3.7 nM; at activated hepsin (setting [3]) it was 5.8 nM; at recombinant thrombin (setting [4]), above 20000 nM; on Factor Xa (setting [5]), 13300 nM.

For the molecule `CC(=O)N[C@H]1CC(=O)NCCCC[C@@H](C(=O)N[C@@H](CCCNC(=N)N)C(=O)c2nc3ccccc3s2)NC(=O)[C@H](Cc2ccc(O)cc2)NC1=O` [VD3158, (3S,6S,14S)-6-acetamido-N—((S)-1-(benzo[d]thiazol-2-yl)-5-guanidino-1-oxopentan-2-yl)-3-(4-hydroxybenzyl)-2,5,8-trioxo-1,4,9-triazacyclotetradecane-14-carboxamide], the IC50 at matriptase (setting [2]) was 6.1 nM; at activated hepsin (setting [3]) it was 44 nM; at recombinant thrombin (setting [4]) it was above 20000 nM; at Factor Xa (setting [5]), 17000 nM.

For the molecule `CC(=O)N[C@H]1CC(=O)NCCCC[C@@H](C(=O)N[C@@H](CCCNC(=N)N)C(=O)c2nc3ccccc3s2)NC(=O)[C@H](CC(N)=O)NC1=O` [VD3166, (3S,6S,14S)-6-acetamido-3-(2-amino-2-oxoethyl)-N—((S)-1-(benzo[d]thiazol-2-yl)-5-guanidino-1-oxopentan-2-yl)-2,5,8-trioxo-1,4,9-triazacyclotetradecane-14-carboxamide], the IC50 in assay [1] is 15800 nM; on matriptase (setting [2]) it was 3.8 nM; at activated hepsin (setting [3]), 10.1 nM; on recombinant thrombin (setting [4]) it was above 20000 nM; at Factor Xa (setting [5]), 4650 nM.

For the molecule `CC(=O)N[C@H]1CC(=O)NCCCC[C@@H](C(=O)N[C@@H](CCCNC(=N)N)C(=O)c2nc3ccccc3s2)NC(=O)[C@H](C(C)C)NC1=O` [VD3167, (3S,6S,14S)-6-acetamido-N—((S)-1-(benzo[d]thiazol-2-yl)-5-guanidino-1-oxopentan-2-yl)-3-isopropyl-2,5,8-trioxo-1,4,9-triazacyclotetradecane-14-carboxamide], the half-maximal inhibitory concentration (IC50) in assay [1] is 1830 nM; at matriptase (setting [2]), 3.2 nM; at activated hepsin (setting [3]), 7.8 nM; at recombinant thrombin (setting [4]), above 20000 nM; on Factor Xa (setting [5]), 1510 nM.

`CC(=O)N[C@H]1CC(=O)NCCCC[C@@H](C(=O)N[C@@H](CCCNC(=N)N)C(=O)c2nc3ccccc3s2)NC(=O)CNC1=O` [VD3174, (6S,14S)-6-acetamido-N—((S)-1-(benzo[d]thiazol-2-yl)-5-guanidino-1-oxopentan-2-yl)-2,5,8-trioxo-1,4,9-triazacyclotetradecane-14-carboxamide]: the IC50 was 4310 nM in assay [1]; 6.3 nM on matriptase (setting [2]); 5.9 nM on activated hepsin (setting [3]); above 20000 nM on recombinant thrombin (setting [4]); 6180 nM at Factor Xa (setting [5]).

Consider `CC(=O)N[C@H]1Cc2ccc(cc2)OCCCC[C@@H](C(=O)N[C@@H](CCCNC(=N)N)C(=O)c2nc3ccccc3s2)NC(=O)[C@@H](Cc2c[nH]c3ccccc23)NC1=O` [VD4162A], for which the IC50 in assay [1] was 52 nM; at matriptase (setting [2]), 30.8 nM; on recombinant thrombin (setting [4]) it was above 20000 nM; on Factor Xa (setting [5]), 7470 nM.

One may read the IC50 as the midpoint of a concentration-inhibition curve.
